Experimental data reported in patent US20170266089A1, “USE OF LIPOPHILIC SALICYLIC ACID DERIVATIVES” (L'OREAL, priority 2014, published 2017).

How the values were obtained:
[1] = system: Transglutaminase 1 (TGM1) transcripts; assay: Expression of TGM1 transcripts in keratinocytes (RT-qPCR); type: cell-based; conditions: human epidermic keratinocytes, 24 hours, compound at 15 μm; for TGM1 transcript expression, fold change (fc) compared to control: normalized to RPL13A and GAPDH, N=3
Description: (§1) The influence of the compounds (A′) and (F), in particular obtained according to the process indicated above, on the renewal of the epidermis and on the barrier effect of the skin was evaluated in vitro by measuring the expression of TGM1 and TGM3 transcripts in keratinocytes.
(§2) Human epidermic keratinocytes were incubated for 24 hours in the presence or not (control) of compound (A′) or (F). At the end of the incubation, total RNAs were extracted and quantified. The expression of TGM1 and TGM3 transcripts was then measured using a two-step RT-qPCR method with a LightCycler® device according to the technique of incorporation of SYBR®Green (Qiagen). The expression of these transcripts was normalized with the expression of two housekeeping genes, RPL13A and GAPDH. The experiments were reproduced 3 times (N=3).
(§3) The results are given in Table (VI) below, fold change (fc) compared to control.

[2] = system: Transglutaminase 3 (TGM3) transcripts; assay: Expression of TGM3 transcripts in keratinocytes (RT-qPCR); type: cell-based; conditions: human epidermic keratinocytes, 24 hours, compound at 15 μm; for TGM3 transcript expression, fold change (fc) compared to control: normalized to RPL13A and GAPDH, N=3
Description: as §1, §2, §3

laminin-5 = assay: Ex vivo immunolabelling of laminin-5 in skin explants; design: species or system human; conditions: topical 2 mg per explant, compound (F) 5% in water, LHA 5% in ethanol, symbols proportional
Description: (§4) The anti-ageing effect of the compound (F), in particular obtained according to the process indicated above, at 5% in water, was evaluated ex vivo by immunolabelling of the proteins collagen III, membrane transglutaminase (MTG), filaggrin and laminin-5, in comparison with LHA (lipohydroxy acid, 2-hydroxy-5-octanoylbenzoic acid) at 5% in ethanol.
(§5) 111 explants with a diameter of approximately 10 mm were prepared from abdominal plastic surgery on a person. These explants were kept alive.
(§6) On day […], the explants were placed on a grid in 2 ml of culture medium. […]
(§7) At D0, D6 and D11, the explants were sampled from the culture medium and cut in two. […] The labellings were evaluated by a microscopic examination. […]
(§8) The microscopic observations were carried out in optical microscopy and fluorescence microscopy, using a Leica microscope of Orthoplan or DMLB type. […]
Immunolabelling of Laminin-5 The labelling of laminin-5 was carried out on frozen sections with a monoclonal antibody, clone P3E4 (Santa Cruz sc-13587), at 1/300th, for 30 minutes at ambient temperature with a biotin/streptavidin amplifying system, visualized in FITC (Caltag sa1001). […] The labelling was evaluated by a microscopic examination. […]
The results obtained with the compound (F) and LHA are assessed, at equivalent date, by comparison with the results obtained in the absence of treatment (control test). […]

[3] = system: membrane transglutaminase (MTG); assay: Ex vivo immunolabelling of membrane transglutaminase (MTG) in skin explants; design: species or system human; conditions: topical 2 mg per explant, compound (F) 5% in water, LHA 5% in ethanol, symbols proportional
Description: as §4, §5, §6, §7, §8
Membrane transglutaminase was labelled on frozen sections with a monoclonal antibody, clone B.C1 (Harbor Bio Product ref. 5003), at 1/100th, for 2 h at ambient temperature with a Vectastain RTU Universal, Vector, avidin/biotin amplifying system and visualized in FITC. […] The labelling was evaluated by a microscopic examination. […]
The results obtained with the compound (F) and […] are assessed, at equivalent date, by comparison with the results obtained in the absence of treatment (control test). […]

SMILES | Stimulation of the expression of TGM1 transcripts (class in words) [1] | TGM1 transcript expression, fold change (fc) compared to control [1] [fc] | Stimulation of the expression of TGM3 transcripts (class in words) [2] | TGM3 transcript expression, fold change (fc) compared to control [2] [fc] | Laminin-5 expression level, difference in comparison with the control at D11 (laminin-5) | MTG expression level, difference in comparison with the control at D6 [3]
CCCCCCCCCCCCCCCc1cccc(O)c1C(=O)O [Compound (A′), 6-peritadecylsalicylic acid] | strong stimulation | 6.0 | strong stimulation | 20 | – | –
CCCCCCCCCCCCCCCc1cccc(O)c1C(=O)O [Compound (F)] | average stimulation | 1.7 | good stimulation | 3.0 | No variation | No variation
CCCCCCCC(=O)c1ccc(O)c(C(=O)O)c1 [LHA, 2-hydroxy-5-octanoylbenzoic acid, reference compound] | – | – | – | – | No variation | –
